Common to all, as to type: biochemical
The target of experiment [1] is T1, hENPP2 (UniProtKB/SwissProt Sequence ref Q13822) (Homo sapiens (Human), UniProt Q13822). As to the kind of experiment: LPC hENPP2 assay (choline release, LPC as substrate). The procedure, abridged: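 Choline released from LPC by ENPP2 is quantified after stopping with stop-developer containing 0.6 U/mL choline oxidase, 0.6 U/mL peroxidase, 1.8 mM TOOS, 1.2 mM amino-antipyrine and 20 mM EGTA. Quinoneimine dye read at 555 nm after 30 min at room temperature.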

Experiment [2] deals with T1, hENPP2. As to the kind of experiment: FS3 hENPP2 assay (fluorogenic substrate FS-3). The note with it: hENPP2, FS-3 as substrate. In outline: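 Compound dilutions (1/5 steps, top concentration as added 20 μM) were preincubated 30 min at room temperature with hENPP2 (0.4 or 0.64 μg/mL final) in pH 8.0 Tris buffer containing NaCl, KCl, MgCl2, CaCl2 and 0.1% fatty-acid-free BSA. FS-3 (0.75 μM as added) was then hydrolysed for 30 min at 30 °C, and fluorescence was read at 485/520 nm.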

Experiment [3] concerns LPA 18:2. As to the kind of experiment: Rat whole blood (plasma) LPA assay. As for the experimental part: Whole blood is collected from rats or mouse by exsanguinations on sodium heparin tube, then after centrifugation at 3000 rpm for 15 min at 4° C., plasma is stored at −80° C. Compounds are diluted in DMSO in concentration dependent manner then 0.5 μL are dispensed into 96-wells plate placed in ice. Plasma is defrosted on ice then 49.5 μL of plasma are added into the well containing 0.5 μL of compound (1% DMSO final). Plates are covered with a lid in polypropylene and incubated at +37° C., 5% CO2, for 2 h under gentle shaking (except controls which are stored at −20° C.).
At the end of the incubation, controls are defrosted in ice and transferred in the incubated plates for LC-MS/MS analysis with a non GLP-validated method. For the analysis, plasma proteins from a 10 μL incubated plates are precipitated with an excess of methanol containing the internal standard, LPA 17:0. After centrifugation, the corresponding supernatant is injected on a C18 column. Analytes are eluted out of the column under isocratic conditions. An API5500 QTRAP mass spectrometer (ABSciex™) is used for the detection of LPA 18:2. No calibration curve is prepared for LPA 18:2, however relative quantities are evaluated based on the peak area.

The values below come from patent US9796719B2, “Compounds and pharmaceutical compositions thereof for the treatment of inflammatory disorders” (GALAPAGOS NV, priority 2013, dated 2017).

On to `CCc1nc2cnc(N3CCN(CC(=O)N4CC(O)C4)CC3)cn2c1N(C)c1nc(-c2ccc(F)cc2C#N)cs1` [Cpd 16, 2-(2-((2-ethyl-6-(4-(2-(3-hydroxyazetidin-1-yl)-2-oxoethyl)piperazin-1-yl)imidazo[1,2-a]pyrazin-3-yl)(methyl)amino)thiazol-4-yl)-5-fluorobenzonitrile], for which the results for the IC50 in experiment [1], in experiment [2] and in experiment [3] were above 1000 nM, 50 to 100 nM and above 1000 nM, respectively.
Regarding `CCc1nc2ccc(N3CCC(N4CCOCC4)C3)nn2c1N(C)c1nc(-c2ccc(F)cc2)c(C#N)s1` (stereo not drawn) [Cpd 149, 2-((2-ethyl-6-(3-morpholino-pvrrolidin-1-yl)imidazo[1,2-b]pyridazin-3-yl)(methyl)amino)-4-(4-fluorophenyl) thiazole-5-carbonitrile], the IC50 in experiment [1] and in experiment [3] was 0.01 to 100 nM each time.
Consider `CN(c1nc(-c2ccc(F)cc2)cs1)c1c(CCC#N)nc2ccc(C3CCN(S(C)(=O)=O)CC3)nn12` [Compound 198, 3-(3-((4-(4-fluorophenyl)thiazol-2-yl)(methyl)amino)-6-(1-(methylsulfonyl)piperidin-4-yl)imidazo[1,2-b]pyridazin-2-yl)propanenitrile], for which the IC50 in experiment [1] lay within 100 to 500 nM; in experiment [2] it was 0.01 to 25 nM; in experiment [3], 0.01 to 100 nM.
The matching figures for `CCc1nc2cnc(C3CCN(CC(=O)N4CC[C@H](O)C4)CC3)cn2c1N(C)c1nc(-c2ccc(F)cc2)c(C#N)s1` [Cpd 25, (S)-2-((2-ethyl-6-(1-(2-(3-hydroxypyrrolidin-1-yl)-2-oxoethyl)piperidin-4-yl)imidazo[1,2-a]pyrazin-3-yl)(methyl)amino)-4-(4-fluorophenyl) thiazole-5-carbonitrile]: 100 to 500 nM, 0.01 to 25 nM and 0.01 to 100 nM.
As to `CCc1nc2cnc(N3CCN(CC(=O)N4CC(O)C4)CC3)cn2c1N(C)c1ncc(C#N)c(-c2ccc(F)cc2)n1` [Cpd 19, 2-((2-ethyl-6-(4-(2-(3-hydroxyazetidin-1-yl)-2-oxoethyl)piperazin-1-yl)imidazo[1,2-a]pyrazin-3-yl)(methyl)amino)-4-(4-fluorophenyl) pyrimidine-5-carbonitrile], the results for the IC50 in experiment [1], in experiment [2] and in experiment [3] were above 1000 nM, above 100 nM and above 1000 nM, respectively.
Take `CCc1nc2cnc(N3CCN(CC(=O)N4CCOCC4)CC3)cn2c1N(C)c1nc(-c2ccc(F)cc2)c(C#N)s1` [Cpd 10, 2-((2-ethyl-6-(4-(2-morpholino-2-oxoethyl)piperazin-1-yl)imidazo[l,2-a]pyrazin-3-yl)(methyl)amino)-4-(4-fluorophenyl) thiazole-5-carbonitrile]: the figures for the half-inhibitory concentration (IC50) in experiment [1], in experiment [2] and in experiment [3] were 100 to 500 nM, 0.01 to 25 nM and above 1000 nM, respectively.
On to `CCc1nc2ccc(C3CCN(CC(=O)N4CC(O)C4)CC3)nn2c1N(C)c1cccc(-c2ccc(F)cc2C#N)n1` [Cpd 213, 2-(6-((2-ethyl-6-(1-(2-(3-hydroxyazetidin-1-yl)-2-oxoethyl)piperidin-4-yl)imidazo[1,2-b]pyridazin-3-yl)(methyl)amino)pyridin-2-yl)-5-fluorobenzonitrile], for which the IC50 in experiment [1] was in the range of 0.01 to 100 nM; in experiment [2], 0.01 to 25 nM; in experiment [3], 100 to 500 nM.
Taken in the same sequence, the figures for `CCc1nc2ccc(C3CCN(CC(=O)N4CC(O)C4)CC3)nn2c1N(C)c1ccnc(-c2ccc(F)cc2)n1` [Cpd 216, 2-(4-(2-ethyl-3-((2-(4-fluorophenyl)pyrimidin-4-yl)(methyl)amino)imidazo[1,2-b]pyridazin-6-yl)piperidin-1-yl)-1-(3-hydroxyazetidin-1-yl)ethanone] were 500 to 1000 nM, 0.01 to 25 nM and above 1000 nM.
Regarding `CCc1nc2ccc(C3CCN(S(C)(=O)=O)CC3)nn2c1N(C)c1nc(-c2ccc(F)cc2C#N)c(CO)s1` [Cpd 206, 2-(2-((2-ethyl-6-(1-(methylsulfonyl)piperidin-4-yl)imidazo[1,2-b]pyridazin-3-yl)(methyl)amino)-5-(hydroxymethyl)thiazol-4-yl)-5-fluorobenzonitrile], the IC50 in experiment [1] is 500 to 1000 nM; in experiment [3], 100 to 500 nM.
As for `CCc1nc2ccc(N3CCN(S(=O)(=O)CCCN(C)C)[C@H](CO)C3)nn2c1N(C)c1nc(-c2ccc(F)cc2)cs1` [Cpd 63, (S)-(1-(3-(dimethylamino)propylsulfonyl)-4-(2-ethyl-3-((4-(4-fluorophenyl)thiazol-2-yl)(methyl)amino)imidazo[1,2-b]pyridazin-6-yl)piperazin-2-yl)methanol], the IC50 lay within 0.01 to 100 nM in experiment [1], 0.01 to 25 nM in experiment [2] and 0.01 to 100 nM in experiment [3].
On to `CCc1nc2cnc(N3CCN(CC(=O)N4CC[C@H](O)C4)CC3)cn2c1N(C)c1nc(-c2ccc(F)cc2)c(C#N)s1` [Cpd 7, (S)-2-((2-ethyl-6-(4-(2-(3-hydroxypyrrolidin-1-yl)-2-oxoethyl)piperazin-1-yl)imidazo[1,2-a]pyrazin-3-yl)(methyl)amino)-4-(4-fluorophenyl) thiazole-5-carbonitrile], for which the IC50 in experiment [1] was in the range of 100 to 500 nM; in experiment [2] it was 0.01 to 25 nM; in experiment [3] it was 100 to 500 nM.
In the case of `CCc1nc2ccc(N3CCC4(CNC(=O)O4)C3)nn2c1N(C)c1nc(-c2ccc(F)cc2)cs1` (stereo not drawn) [Cpd 118, 7-(2-ethyl-3-((4-(4-fluorophenyl)thiazol-2-yl)(methyl)amino)imidazo[1,2-b]pyridazin-6-yl)-1-oxa-3,7-diazaspiro[4.4] nonan-2-one], the figures for the IC50 in experiment [1] and in experiment [3] were 500 to 1000 nM and above 1000 nM, respectively.
On to `CCc1nc2ccc(C3CCN(CC(=O)N4CC(O)C4)CC3)nn2c1N(C)c1ccc(C#N)c(-c2ccc(F)cc2)n1` [Cpd 218, 6-((2-ethyl-6-(1-(2-(3-hydroxyazetidin-1-yl)-2-oxoethyl)piperidin-4-yl)imidazo[1,2-b]pyridazin-3-yl)(methyl)amino)-2-(4-fluorophenyl) nicotinonitrile], for which the figures for the IC50 in experiment [1], in experiment [2] and in experiment [3] were 100 to 500 nM, 0.01 to 25 nM and 100 to 500 nM, respectively.
With `CCc1nc2cnc(N3CCN(CC(=O)N4CC[C@@H](O)C4)CC3)cn2c1N(C)c1nc(-c2ccc(F)cc2)c(C#N)s1` [Cpd 6, (R)-2-((2-ethyl-6-(4-(2-(3-hydroxypyrrolidin-1-yl)-2-oxoethyl)piperazin-1-yl)imidazo[1,2-a]pyrazin-3-yl)(methyl)amino)-4-(4-fluorophenyl) thiazole-5-carbonitrile], the IC50 in experiment [1] was in the range of 100 to 500 nM; in experiment [2] it was 0.01 to 25 nM; in experiment [3], 100 to 500 nM.
For the compound `CCc1nc2ccc(C3CCN(S(C)(=O)=O)CC3)nn2c1N(C)c1nc(-c2ccc(F)cc2C#N)cs1` [Cpd 205, 2-(2-((2-ethyl-6-(1-(methylsulfonyl)piperidin-4-yl)imidazo[1,2-b]pyridazin-3-yl)(methyl)amino)thiazol-4-yl)-5-fluorobenzonitrile], the IC50 in experiment [1] and in experiment [3] was 100 to 500 nM each time.
For `CCc1nc2ccc(N3CCN(CC4CNC(=O)O4)CC3)nn2c1N(C)c1nc(-c2ccc(F)cc2)cs1` (stereo not drawn) [Cpd 40, 5-((4-(2-ethyl-3-((4-(4-fluorophenyl)thiazol-2-yl)(methyl)amino)imidazo[1,2-b]pyridazin-6-yl)piperazin-1-yl)methyl) oxazolidin-2-one], the figures for the IC50 in experiment [1], in experiment [2] and in experiment [3] were 100 to 500 nM, 0.01 to 25 nM and 100 to 500 nM, respectively.
Regarding `CCc1nc2cnc(C3CCN(CC(=O)N4CC[C@@H](O)C4)CC3)cn2c1N(C)c1nc(-c2ccc(F)cc2)c(C#N)s1` [Cpd 24, (R)-2-((2-ethyl-6-(1-(2-(3-hydroxypyrrolidin-1-yl)-2-oxoethyl)piperidin-4-yl)imidazo[1,2-a]pyrazin-3-yl)(methyl)amino)-4-(4-fluorophenyl) thiazole-5-carbonitrile], the IC50 in experiment [1] was in the range of 100 to 500 nM; in experiment [2], 0.01 to 25 nM; in experiment [3], 0.01 to 100 nM.
With `CCc1nc2ccc(N3CCCC(O)C3)nn2c1N(C)c1nc(-c2ccc(F)cc2)cs1` (stereo not drawn) [Cpd 91, 1-(2-ethyl-3-((4-(4-fluorophenyl)thiazol-2-yl)(methyl)amino)imidazo[1,2-b]pyridazin-6-yl)piperidin-3-ol], the results for the IC50 in experiment [1] and in experiment [2] were above 1000 nM and 25 to 50 nM, respectively.
Take `CCc1nc2cnc(N3CCN(CC(=O)N4CC(O)C4)CC3)cn2c1N(C)c1nc(-c2ccc(F)cc2)cs1` [Cpd 14, 2-(4-(2-ethyl-3-((4-(4-fluorophenyl)thiazol-2-yl)(methyl)amino)imidazo[1,2-a]pyrazin-6-yl)piperazin-1-yl)-1-(3-hydroxyazetidin-1-yl)ethanone]: the IC50 in experiment [1] and in experiment [3] was above 1000 nM each time.

A word on the IC50: it is the concentration that gives 50% inhibition.
